The source of these data is article PMC3070360 (Journal of natural products, 2011).

For the first series, the system named is HCT-116. Put plainly: NCI-DTP 60 cell line screen, HCT-116. The format is cell-based. The conditions noted are these: read-out: GI50 HCT-116, data provided by NCI-DTP, NA=not active.
As for (+)-jasplakinolide V [Compound 13], the GI50 worked out at 70 nM.
On to jasplakinolide J [Compound 5], for which the GI50 was 110 nM.
Still for that read-out and setting: the same measure for jasplakinolide Q [Compound 7]: 50 nM.

A further series relates to MDA-MB-231. Put plainly: NCI-DTP 60 cell line screen, MDA-MB-231. The format is cell-based. The conditions noted are these: read-out: GI50 MDA-MB-231, data provided by NCI-DTP, NA=not active.
With “jasplakinolide B [Compound 3, reference compound]”, the GI50 is 40 nM.
Take (+)-jasplakinolide V [Compound 13]: the GI50 amounted to 90 nM.
In the case of (+)-jasplakinolide Z1 [Compound 9], the GI50 is 2500 nM.
jasplakinolide J [Compound 5]: the GI50 is 260 nM.
With (+)-jasplakinolide Z3 [Compound 11], the GI50 amounted to 740 nM.
On the same count and under the same terms, the same measure for jasplakinolide Q [Compound 7]: 70 nM.

Another series deals with IGROV-1. Nature of the series: NCI 60 cell line screen, IGROV-1. The format is cell-based, human. The conditions noted are these: read-out: GI50 IGROV-1, IGROV-1, Ovarian.
Turning to (+)-jasplakinolide V [Compound 13], the GI50 came to 30 nM.
With (+)-jasplakinolide Z1 [Compound 9], the 50% growth inhibitory concentration (GI50) turned out to be 1760 nM.
Regarding jasplakinolide J [Compound 5], the GI50 was found to be 20 nM.
(+)-jasplakinolide Z3 [Compound 11]: the GI50 was 170 nM.
The same measure, in the same setting: the same measure for jasplakinolide Q [Compound 7]: 10 nM.

A further series relates to U25-1. Put plainly: NCI 60 cell line screen, U25-1. The conditions noted are these: read-out: GI50 U25-1, U25-1, CNS. The format is cell-based.
Consider (+)-jasplakinolide V [Compound 13], for which the GI50 was found to be 40 nM.
Still for that read-out and setting: the same measure for (+)-jasplakinolide Z1 [Compound 9]: 600 nM; for jasplakinolide J [Compound 5]: 50 nM.
On the same count and under the same terms, the same measure for (+)-jasplakinolide Z3 [Compound 11]: 50 nM; for jasplakinolide Q [Compound 7]: 30 nM.

For a further series, the system named is NCI-H522. Put plainly: NCI 60 cell line screen, NCI-H522. The class given is cell-based. The conditions noted are these: read-out: GI50 NCI-H522, NCI-H522, Lung.
In the case of (+)-jasplakinolide V [Compound 13], the GI50 amounted to 60 nM.
Same read-out and setting: the same measure for (+)-jasplakinolide Z1 [Compound 9]: 120 nM.
In the case of jasplakinolide J [Compound 5], the GI50 worked out at 610 nM.
(+)-jasplakinolide Z3 [Compound 11]: the GI50 was found to be 40 nM.
Take jasplakinolide Q [Compound 7]: the GI50 stood at 160 nM.

For another series, the system named is DU-145. Nature of the series: NCI 60 cell line screen, DU-145. The format is cell-based. Particulars: read-out: GI50 DU-145, DU-145, Prostate.
Take (+)-jasplakinolide V [Compound 13]: the GI50 amounted to 80 nM.
For the substance (+)-jasplakinolide Z1 [Compound 9], the GI50 is 18800 nM.
Still for that read-out and setting: then jasplakinolide J [Compound 5], with 290 nM; and (+)-jasplakinolide Z3 [Compound 11], with 3720 nM.
In the case of jasplakinolide Q [Compound 7], the GI50 came out at 100 nM.

The next series concerns A498. Put plainly: NCI 60 cell line screen, A498. The format is cell-based, human. Particulars: read-out: GI50 A498, A498, Renal.
On to (+)-jasplakinolide V [Compound 13], for which the GI50 worked out at 10 nM.
Same read-out and setting: then jasplakinolide J [Compound 5], with 210 nM; and (+)-jasplakinolide Z3 [Compound 11], with 440 nM.
Take jasplakinolide Q [Compound 7]: the GI50 was found to be 80 nM.

The subject of a further series is LOX-IMVI. Put plainly: NCI 60 cell line screen, LOX-IMVI. The class given is cell-based, human. The conditions noted are these: read-out: GI50 LOX-IMVI, Melanoma.
Take (+)-jasplakinolide V [Compound 13]: the GI50 was determined as 7 nM.
Same read-out and setting: then (+)-jasplakinolide Z1 [Compound 9], with 280 nM; and jasplakinolide J [Compound 5], with 30 nM.
As to (+)-jasplakinolide Z3 [Compound 11], the GI50 was found to be 160 nM.
As to jasplakinolide Q [Compound 7], the GI50 was 20 nM.

The next series deals with HCT-116 cells. Nature of the series: Clonogenic dose-response analysis. The format is cell-based. The conditions noted are these: HCT-116, clonogenic, continuous exposure for seven days.
Turning to jasplakinolide [Compound 1], the “Concentration achieving the desired therapeutic effect (90% kill of tumor cells)” value is 0.004 µM.

Staying with this series, now noted: two hour and 24 hour dosing schedules.
On to jasplakinolide [Compound 1], for which the “Toxicity to HCT-116 cells in the clonogenic assay” value is reported as “Little toxicity”.

Another series concerns NCI 60 cell lines. Put plainly: NCI 60 cell line screen, single dose and overall cytotoxicity. The class given is cell-based.
Details: not given
With jasplakinolide J [Compound 5], the “Diminished cytotoxicity (summary in the conclusions)” value is reported as “≈ 1 uM”.

For the next series, the system named is PC-3.
Experiment: not given
The conditions noted are these: read-out: GI50 PC-3; human prostate carcinoma cell line PC-3; cited from earlier work.
jasplakinolide [Compound 1]: the GI50 was 65 nM.

Another series concerns LnCap.
Experiment: not given
The conditions noted are these: read-out: GI50 LnCap; human prostate carcinoma cell line LnCap; cited from earlier work.
As for jasplakinolide [Compound 1], the GI50 is 41 nM.

In a further series the test system is TSU-Pr1.
Experiment: not given
The conditions noted are these: read-out: GI50 TSU-Pr1; human prostate carcinoma cell line TSU-Pr1; cited from earlier work.
Consider jasplakinolide [Compound 1], for which the GI50 is 170 nM.

As usually defined, the GI50 is the concentration at which growth is held to half of that of the control.
